The results in this text go back to patent publication US20260007684A1, “AMIDE DERIVATIVES FOR INHIBITING NLRP3 AND USES THEREOF” (Ventus Therapeutics U.S., Inc., priority 2023, published 2026).

In assay [1] the target is T1, human NLRP3 (Homo sapiens (Human), UniProt Q96P20). The assay is described as follows: Scintillation Proximity (SPA) NLRP3 Assay: displacement of 3H-MCC950. The assay is classed as binding. The note with it: read-out: SPA IC50. (In general: Scintillation proximity formats need no separation of bound from free tracer.)
T1 sequence (Q96P20 whole entry): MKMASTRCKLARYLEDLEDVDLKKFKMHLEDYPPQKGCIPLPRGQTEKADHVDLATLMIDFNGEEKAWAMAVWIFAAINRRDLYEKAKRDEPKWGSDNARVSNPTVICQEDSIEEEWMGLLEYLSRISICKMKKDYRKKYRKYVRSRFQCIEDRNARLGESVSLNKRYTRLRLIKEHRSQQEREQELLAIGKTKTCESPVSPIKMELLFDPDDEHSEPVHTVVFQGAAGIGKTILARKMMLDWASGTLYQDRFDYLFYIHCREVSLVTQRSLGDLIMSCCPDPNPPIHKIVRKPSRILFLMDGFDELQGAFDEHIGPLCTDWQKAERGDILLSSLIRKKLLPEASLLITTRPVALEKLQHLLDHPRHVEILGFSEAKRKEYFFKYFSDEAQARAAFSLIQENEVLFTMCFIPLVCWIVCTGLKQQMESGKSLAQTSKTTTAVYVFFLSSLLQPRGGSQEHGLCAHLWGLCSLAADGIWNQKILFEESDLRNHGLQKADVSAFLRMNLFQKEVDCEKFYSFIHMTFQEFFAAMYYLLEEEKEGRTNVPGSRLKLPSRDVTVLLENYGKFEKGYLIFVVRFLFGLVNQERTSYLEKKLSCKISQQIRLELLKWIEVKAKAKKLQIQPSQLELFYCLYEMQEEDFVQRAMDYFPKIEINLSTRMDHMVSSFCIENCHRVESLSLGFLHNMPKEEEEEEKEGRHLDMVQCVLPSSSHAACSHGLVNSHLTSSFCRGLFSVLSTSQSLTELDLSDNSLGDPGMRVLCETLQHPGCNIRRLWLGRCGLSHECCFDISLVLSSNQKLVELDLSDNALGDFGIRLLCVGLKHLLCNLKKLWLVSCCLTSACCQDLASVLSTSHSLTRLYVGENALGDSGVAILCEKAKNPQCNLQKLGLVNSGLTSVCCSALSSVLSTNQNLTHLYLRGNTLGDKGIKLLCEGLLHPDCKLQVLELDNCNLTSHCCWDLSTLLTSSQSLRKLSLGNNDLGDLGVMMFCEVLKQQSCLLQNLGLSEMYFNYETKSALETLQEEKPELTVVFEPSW
In assay [2] the target is T1, human NLRP3. The experiment in a line: Human Whole Blood (hWB) NLRP3 Assay (LPS/ATP, IL-1β). The assay is classed as cell-based. The conditions noted are these: LPS/ATP, IL-1β.
Assay [3] has as its target T1, human NLRP3. The assay is described as follows: Human PBMC NLRP3 Assay (LPS priming, ATP stimulation, cytokine measurement). The assay is classed as cell-based. The conditions noted are these: for IC50: read-out: PBMC IC50.
Where [4] appears, read: human PBMC, LPS priming, ATP stimulation.

`C[C@@H]1C[C@@H](NC(=O)C2(c3ccc(OC(F)F)cc3F)CC2)[C@H]2CC[C@@H]1N2c1nnn[nH]1` (stereo in doubt) [Compound 101A, 1-(4-(difluoromethoxy)-2-fluorophenyl)-N-(4-methyl-8-(1H-tetrazol-5-yl)-8-azabicyclo[3.2.1]octan-2-yl)cyclopropane-1-carboxamide]: the IC50 (in general, the concentration that gives 50% inhibition) is less than 1000 nM in assay [1] (displacement of 3H-MCC950) and less than 1000 nM in assay [2] (hWB IC50, human whole blood).

Regarding `COc1cc(F)c(C2(C(=O)N[C@@H]3C[C@@H](C)[C@@H]4CC[C@H]3N4c3nnn[nH]3)CC2)c(F)c1` (single isomer, unassigned) [102A*], the 50% inhibitory concentration (IC50) in assay [1] (displacement of 3H-MCC950) is less than 1000 nM; in assay [2] (hWB IC50, human whole blood) it was less than 1000 nM.

In the case of `C[C@@H]1CCN(c2nnn[nH]2)C[C@@H](NC(=O)C2(c3ccc(C(F)F)cc3O)CC2)C1` (single isomer, unassigned) [30B*, 1-(4-(difluoromethyl)-2-hydroxyphenyl)-N-(5-methyl-1-(1H-tetrazol-5-yl)azepan-3-yl)cyclopropane-1-carboxamide], the IC50 in assay [1] (displacement of 3H-MCC950) was less than 1000 nM; in assay [3] (setting [4]), 10 to 100 nM.

On to `C[C@@H]1CCN(c2nnn[nH]2)C[C@H](NC(=O)C2(c3ccc(Cl)cc3Cl)CC2)C1` (single isomer, unassigned) [55A*], for which the IC50 in assay [1] (displacement of 3H-MCC950) is less than 1000 nM; in assay [3] (setting [4]) it was 10 to 100 nM.

Regarding `C[C@H]1CC[C@H](NC(=O)C2(c3ccc(Cl)cc3O)CC2)CN(c2nnn[nH]2)C1` (single isomer, unassigned) [90B*], the values for the concentration for half-maximal inhibition (IC50) in assay [1] (displacement of 3H-MCC950) and in assay [3] (setting [4]) were less than 1000 nM and 10 to 100 nM, respectively.

Take `C[C@@H]1CCN(c2nnn[nH]2)C[C@H](NC(=O)C2(c3ccc(Cl)c(F)c3F)CC2)C1` (single isomer, unassigned) [4A*, 1-(4-chloro-2,3-difluorophenyl)-N-(5-methyl-1-(1H-tetrazol-5-yl)azepan-3-yl)cyclopropane-1-carboxamide]: the IC50 in assay [1] (displacement of 3H-MCC950) is less than 1000 nM; in assay [3] (setting [4]) it was 10 to 100 nM.

As to `C[C@H]1C[C@@H](NC(=O)C2(c3ccc(OC(F)F)cc3)CC2)[C@H]2CC[C@@H]1N2c1nnn[nH]1` (single isomer, unassigned) [35E*], the IC50 in assay [1] (displacement of 3H-MCC950) is 1000 to 10000 nM; in assay [2] (human whole blood, read-out: hWB IC50), more than 3000 nM.

On to `O=C(NC1CC(C(F)(F)F)CCN(c2nnn[nH]2)C1)C1(c2ccc(Cl)cc2)CC1` (racemic) [Rac-1, 1-(4-chlorophenyl)-N-[1-(1H-1,2,3,4-tetrazol-5-yl)-5-(trifluoromethyl)azepan-3-yl]cyclopropane-1-carboxamide], for which the IC50 in assay [1] (displacement of 3H-MCC950) is less than 1000 nM; in assay [3] (setting [4]), 100 to 500 nM.

As for `C[C@H]1CCN(c2nnn[nH]2)C[C@@H](NC(=O)C2(c3ccc(Cl)c(F)c3O)CC2)C1` (single isomer, unassigned) [18D*, 1-(4-chloro-3-fluoro-2-hydroxyphenyl)-N-(5-methyl-1-(1H-tetrazol-5-yl)azepan-3-yl)cyclopropane-1-carboxamide], the IC50 in assay [1] (displacement of 3H-MCC950) was less than 1000 nM; in assay [3] (setting [4]), 100 to 500 nM.

With `C[C@@H]1CCN(c2nnn[nH]2)C[C@H](NC(=O)C2(c3ccc(C4CC4)c(F)c3O)CC2)C1` (single isomer, unassigned) [32A*, 1-(4-cyclopropyl-3-fluoro-2-hydroxyphenyl)-N-(5-methyl-1-(1H-tetrazol-5-yl)azepan-3-yl)cyclopropane-1-carboxamide], the IC50 in assay [1] (displacement of 3H-MCC950) was less than 1000 nM; in assay [3] (setting [4]) it was less than 10 nM.

With `C[C@H]1CCN(c2nnn[nH]2)C[C@H](NC(=O)C2(c3ccc(Cl)c(F)c3O)CC2)C1` (single isomer, unassigned) [18C*, 1-(4-chloro-3-fluoro-2-hydroxyphenyl)-N-(5-methyl-1-(1H-tetrazol-5-yl)azepan-3-yl)cyclopropane-1-carboxamide], the results for the IC50 in assay [1] (displacement of 3H-MCC950) and in assay [3] (setting [4]) were 10000 to 50000 nM and 100 to 500 nM, respectively.

On to `C[C@@H]1CCN(c2nnn[nH]2)C[C@H](NC(=O)C2(c3ccc(Cl)c(F)c3)CC2)C1` (single isomer, unassigned) [65A*], for which the IC50 is less than 1000 nM in assay [1] (displacement of 3H-MCC950) and 10 to 100 nM in assay [3] (setting [4]).

As for `C[C@@H]1CCN(c2nnn[nH]2)C[C@H](NC(=O)C2(c3ccc(OC(F)F)c(F)c3)CC2)C1` (single isomer, unassigned) [73A*], the figures for the half-maximal inhibitory concentration (IC50) in assay [1] (displacement of 3H-MCC950) and in assay [3] (setting [4]) were less than 1000 nM and 10 to 100 nM, respectively.

In the case of `C[C@@H]1CCN(c2nnn[nH]2)C[C@H](NC(=O)C2(c3ccc(C(F)(F)F)c(OC(F)F)c3)CC2)C1` (single isomer, unassigned) [54A*], the IC50 is less than 1000 nM in assay [1] (displacement of 3H-MCC950) and 10 to 100 nM in assay [3] (setting [4]).

Take `C[C@@H]1CCN(c2nnn[nH]2)C[C@@H](NC(=O)C2(c3ccc(C(F)(F)F)c(F)c3O)CC2)C1` (single isomer, unassigned) [31B*, 1-(3-fluoro-2-hydroxy-4-(trifluoromethyl)phenyl)-N-(5-methyl-1-(1H-tetrazol-5-yl)azepan-3-yl)cyclopropane-1-carboxamide]: the values for the IC50 in assay [1] (displacement of 3H-MCC950) and in assay [3] (setting [4]) were less than 1000 nM and 10 to 100 nM, respectively.

For the compound `C[C@H]1CCN(c2nnn[nH]2)C[C@@H](NC(=O)C2(c3ccc(OC(F)F)cc3O)CC2)C1` (single isomer, unassigned) [70D*], the 50% inhibitory concentration (IC50) in assay [1] (displacement of 3H-MCC950) was less than 1000 nM; in assay [3] (setting [4]) it was 10 to 100 nM.

`C[C@@H]1CCN(c2nnn[nH]2)C[C@H](NC(=O)C2(c3ccc(C(F)F)cc3O)CC2)C1` (single isomer, unassigned) [30A*, 1-(4-(difluoromethyl)-2-hydroxyphenyl)-N-(5-methyl-1-(1H-tetrazol-5-yl)azepan-3-yl)cyclopropane-1-carboxamide]: the IC50 in assay [1] (displacement of 3H-MCC950) was less than 1000 nM; in assay [3] (setting [4]), less than 10 nM.

With `C[C@@H]1CCN(c2nnn[nH]2)C[C@H](NC(=O)C2(c3ccc(C(F)(F)F)cc3F)CC2)C1` (single isomer, unassigned) [68A*], the IC50 in assay [1] (displacement of 3H-MCC950) is less than 1000 nM; in assay [3] (setting [4]) it was less than 10 nM.

As to `C[C@@H]1CCN(c2nnn[nH]2)C[C@H](NC(=O)C2(c3ccc(C4CC4)cc3)CC2)C1` (single isomer, unassigned) [2A*], the IC50 was less than 1000 nM in assay [1] (displacement of 3H-MCC950) and 10 to 100 nM in assay [3] (setting [4]).

`CC1(C)C[C@@H](NC(=O)C2(c3ccc(Cl)cc3O)CC2)CN(c2nnn[nH]2)C1` (single isomer, unassigned) [42A*]: the IC50 is less than 1000 nM in assay [1] (displacement of 3H-MCC950), 47 nM in assay [1], less than 10 nM in assay [3] (setting [4]) and 5.8 nM in assay [3].

For `O=C(N[C@@H]1CCCN(c2nnn[nH]2)C1)C1(c2ccc(Cl)cc2F)CC1` [Compound 105, (R)-N-(1-(1H-tetrazol-5-yl)piperidin-3-yl)-1-(4-chloro-2-fluorophenyl)cyclopropane-1-carboxamide], the figures for the half-inhibitory concentration (IC50) in assay [3] (setting [4]) and in assay [3] were more than 500 nM and 850 nM, respectively. In addition, the “fold increase in potency as measured by PBMC IC50” value in assay [3] (relative to Compound 10A) is 2.5 fold.

In the case of `C[C@@H]1CCN(c2nnn[nH]2)C[C@@H](NC(=O)C2(c3ccc(OC(F)F)cc3O)CC2)C1` (single isomer, unassigned) [70B*], the 50% inhibitory concentration (IC50) is less than 1000 nM in assay [1] (displacement of 3H-MCC950) and 10 to 100 nM in assay [3] (setting [4]).

On to `O=C(Cc1ccc(Cl)cc1)N[C@@H]1CCCN(c2nnn[nH]2)C1` [Comparative Example H, (R)-N-(1-(1H-tetrazol-5-yl)piperidin-3-yl)-2-(4-chlorophenyl)acetamide, reference compound], for which the half-inhibitory concentration (IC50) in assay [3] is 10500 nM.

On to `C[C@@H]1CCN(c2nnn[nH]2)C[C@H](NC(=O)C2(c3ccc(SC(F)(F)F)cc3)CC2)C1` (single isomer, unassigned) [69A*], for which the figures for the IC50 in assay [1] (displacement of 3H-MCC950) and in assay [3] (setting [4]) were less than 1000 nM and 10 to 100 nM, respectively.

In the case of `C[C@@H]1CCN(c2nnn[nH]2)C[C@H](NC(=O)C2(c3ccc(OC(F)F)cc3F)CC2)C1` (single isomer, unassigned) [3A*], the 50% inhibitory concentration (IC50) in assay [1] (displacement of 3H-MCC950) is less than 1000 nM; in assay [3] (setting [4]), 10 to 100 nM.

Turning to `C[C@@H]1CCN(c2nnn[nH]2)C[C@H](NC(=O)C2(c3cc(F)c(C(F)(F)F)cc3F)CC2)C1` (single isomer, unassigned) [7A*, 1-(2,5-difluoro-4-(trifluoromethyl)phenyl)-N-(5-methyl-1-(1H-tetrazol-5-yl)azepan-3-yl)cyclopropane-1-carboxamide], the figures for the IC50 in assay [1] (displacement of 3H-MCC950) and in assay [3] (setting [4]) were less than 1000 nM and 10 to 100 nM, respectively.

For `Cc1ccc(C2(C(=O)N[C@@H]3C[C@H](C)CCN(c4nnn[nH]4)C3)CC2)cc1` (single isomer, unassigned) [71A*], the figures for the concentration for half-maximal inhibition (IC50) in assay [1] (displacement of 3H-MCC950) and in assay [3] (setting [4]) were less than 1000 nM and 10 to 100 nM, respectively.

For `O=C(N[C@H]1CCCN(c2ccccc2)C1)c1ccc(Cl)cc1` [Comparative Example J2, (S)-4-chloro-N-(1-phenylpiperidin-3-yl)benzamide, reference compound], in assay [3], the half-inhibitory concentration (IC50) is more than 100000 nM.

Consider `C[C@@H]1CCN(c2nnn[nH]2)C[C@H](NC(=O)C2(c3ccc(OC(F)F)cc3O)CC2)C1` (single isomer, unassigned) [70A*], for which the figures for the IC50 in assay [1] (displacement of 3H-MCC950) and in assay [3] (setting [4]) were less than 1000 nM and less than 10 nM, respectively.

`O=C(N[C@@H]1CC[C@H]2CC[C@@H]1N2c1nnn[nH]1)C1(c2ccc(OC(F)F)cc2)CC1` [Compound 106, N-((1S,2R,5S)-8-(1H-tetrazol-5-yl)-8-azabicyclo[3.2.1]octan-2-yl)-1-(4-(difluoromethoxy)phenyl)cyclopropane-1-carboxamide]: the IC50 in assay [3] (setting [4]) is more than 500 nM.

As for `C[C@@H]1CCN(c2nnn[nH]2)C[C@H](NC(=O)C2(c3ccc(C(F)F)cc3)CC2)C1` (single isomer, unassigned) [5A*, 1-(4-(difluoromethyl)phenyl)-N-(5-methyl-1-(1H-tetrazol-5-yl)azepan-3-yl)cyclopropane-1-carboxamide], the figures for the IC50 in assay [1] (displacement of 3H-MCC950) and in assay [3] (setting [4]) were less than 1000 nM and 10 to 100 nM, respectively.

Take `Cn1nnnc1N1CCC[C@@H](NC(=O)C2(c3ccc(Cl)cc3)CC2)C1` [Comparative Example F, (R)-1-(4-chlorophenyl)-N-(1-(1-methyl-1H-tetrazol-5-yl)piperidin-3-yl)cyclopropane-1-carboxamide, reference compound]: the half-inhibitory concentration (IC50) in assay [3] was found to be 8400 nM.
